Read-outs that look alike come from different tables or passages of the source.
How the values were obtained:
[1] = target: T1, hAC1 (Homo sapiens, UniProt Q08828); experiment: Cyclic AMP accumulation (HTRF) in HEK cells stably expressing AC1, stimulated with A23187; assay type: cell-based; conditions: for inhibition at 30 µM: HEK293; for Selectivity AC1 vs AC8: AC8 IC50/AC1 IC50, without AC8 IC50, estimate based on IC50 ≥30 μM
T1 construct: expressed in transfected cells
Experimental: The screen was carried out using HEK cells stably expressing AC1 (HEK-AC1) and cyclic AMP accumulation was stimulated using the Ca^2+ ionophore, A23187 to selectively activate AC1.
Both AC1 and AC8 are robustly activated by Ca^2+/CaM under a variety of conditions, whereas the effects of Ca^2+/CaM on AC3 are modest and conditional requiring activation by G proteins.
The primary technology we employed to measure cAMP accumulation was a homogenous time-resolved fluorescence (HTRF) assay, the same technology utilized in the primary screen. […]
(§1) Briefly, cryopreserved cells were thawed, resuspended in optiMEM (Life Technologies), and plated in white, flat bottom, low-volume, tissue culture-treated 384 well plates (PerkinElmer, Shelton, Conn.). Plates with cells were incubated in a 37° C. humidified incubator for 1 h. Inhibitors were added and plates were incubated at room temperature for 30 min followed by the addition of AC stimulants in the presence of 500 μM IBMX. Cells were incubated at room temperature for 1 h and cAMP accumulation was measured using Cisbio's cAMP kit (Cisbio Bioassays, Bedford, Mass.) according to the manufacturer's instructions.

[2] = system: HEK-AC1 cells
Experimental: Cell viability assays were conducted with HEK-AC1 cells following plating and compound incubation protocols identical to the procedures described above in “Cyclic AMP assays in cells”. Cell viability was measured as a percentage of vehicle using 2% Triton X-100 (Sigma-Aldrich) as a control. The CellTiter-Glo® Luminescent Cell Viability Assay kit from Promega (Madison, Wis.) was employed to assess cell viability according to the manufacturer's instructions. Luminescence counts were measured using a Synergy 4.

[3] = target: T2, hAC2 (Homo sapiens, UniProt Q08462); experiment: Cyclic AMP accumulation in stable HEK-AC2 cells, stimulated with 100 nM PMA; assay type: cell-based; conditions: Table 1, at 30 μM, negative = potentiated, n = 2
T2 construct: expressed in transfected cells
T2 sequence (Q08462 whole entry): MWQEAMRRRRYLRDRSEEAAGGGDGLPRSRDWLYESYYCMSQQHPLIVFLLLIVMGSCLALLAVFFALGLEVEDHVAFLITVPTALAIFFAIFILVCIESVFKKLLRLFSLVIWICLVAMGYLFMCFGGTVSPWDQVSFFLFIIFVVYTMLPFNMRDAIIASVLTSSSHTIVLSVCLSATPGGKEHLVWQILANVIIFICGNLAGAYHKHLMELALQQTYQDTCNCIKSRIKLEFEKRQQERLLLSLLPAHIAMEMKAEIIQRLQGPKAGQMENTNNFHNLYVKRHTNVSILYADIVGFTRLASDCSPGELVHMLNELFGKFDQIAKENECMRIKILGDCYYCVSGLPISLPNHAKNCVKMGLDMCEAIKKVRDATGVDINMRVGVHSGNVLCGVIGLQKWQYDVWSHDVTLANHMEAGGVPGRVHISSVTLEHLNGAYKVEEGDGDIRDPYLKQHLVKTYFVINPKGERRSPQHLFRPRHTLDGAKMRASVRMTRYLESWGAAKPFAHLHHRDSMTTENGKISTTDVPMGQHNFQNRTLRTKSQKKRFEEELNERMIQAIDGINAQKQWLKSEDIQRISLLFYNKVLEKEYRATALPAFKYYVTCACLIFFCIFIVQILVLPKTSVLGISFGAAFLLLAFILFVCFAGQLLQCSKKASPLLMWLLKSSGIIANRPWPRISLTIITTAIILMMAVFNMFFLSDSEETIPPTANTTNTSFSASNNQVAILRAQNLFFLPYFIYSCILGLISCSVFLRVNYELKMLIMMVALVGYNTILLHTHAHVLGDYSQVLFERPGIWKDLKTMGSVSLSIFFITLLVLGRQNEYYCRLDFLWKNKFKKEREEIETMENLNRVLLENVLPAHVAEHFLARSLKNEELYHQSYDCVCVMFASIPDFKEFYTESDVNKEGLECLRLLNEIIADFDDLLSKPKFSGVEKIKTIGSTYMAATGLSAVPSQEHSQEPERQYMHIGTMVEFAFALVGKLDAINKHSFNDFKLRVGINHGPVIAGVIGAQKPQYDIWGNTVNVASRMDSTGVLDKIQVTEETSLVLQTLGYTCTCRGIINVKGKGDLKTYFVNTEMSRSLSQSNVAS
Experimental: as §1, with “Cyclic AMP accumulation was measured as previously described (Brust, et al., J. Pharmacol. Exp. Ther. 352, 480-493(2015)). Briefly,” for “Briefly,”

[4] = target: T3, hAC8 (Homo sapiens, UniProt P40145); experiment: Cyclic AMP accumulation (HTRF) in HEK cells stably expressing AC8, stimulated with A23187; assay type: cell-based; conditions: for hAC8 % Inhib: at 30 μM, negative values indicate a potentiated response; for inhibition at 30 µM: HEK293
T3 construct: expressed in transfected cells
T3 sequence (P40145 whole entry): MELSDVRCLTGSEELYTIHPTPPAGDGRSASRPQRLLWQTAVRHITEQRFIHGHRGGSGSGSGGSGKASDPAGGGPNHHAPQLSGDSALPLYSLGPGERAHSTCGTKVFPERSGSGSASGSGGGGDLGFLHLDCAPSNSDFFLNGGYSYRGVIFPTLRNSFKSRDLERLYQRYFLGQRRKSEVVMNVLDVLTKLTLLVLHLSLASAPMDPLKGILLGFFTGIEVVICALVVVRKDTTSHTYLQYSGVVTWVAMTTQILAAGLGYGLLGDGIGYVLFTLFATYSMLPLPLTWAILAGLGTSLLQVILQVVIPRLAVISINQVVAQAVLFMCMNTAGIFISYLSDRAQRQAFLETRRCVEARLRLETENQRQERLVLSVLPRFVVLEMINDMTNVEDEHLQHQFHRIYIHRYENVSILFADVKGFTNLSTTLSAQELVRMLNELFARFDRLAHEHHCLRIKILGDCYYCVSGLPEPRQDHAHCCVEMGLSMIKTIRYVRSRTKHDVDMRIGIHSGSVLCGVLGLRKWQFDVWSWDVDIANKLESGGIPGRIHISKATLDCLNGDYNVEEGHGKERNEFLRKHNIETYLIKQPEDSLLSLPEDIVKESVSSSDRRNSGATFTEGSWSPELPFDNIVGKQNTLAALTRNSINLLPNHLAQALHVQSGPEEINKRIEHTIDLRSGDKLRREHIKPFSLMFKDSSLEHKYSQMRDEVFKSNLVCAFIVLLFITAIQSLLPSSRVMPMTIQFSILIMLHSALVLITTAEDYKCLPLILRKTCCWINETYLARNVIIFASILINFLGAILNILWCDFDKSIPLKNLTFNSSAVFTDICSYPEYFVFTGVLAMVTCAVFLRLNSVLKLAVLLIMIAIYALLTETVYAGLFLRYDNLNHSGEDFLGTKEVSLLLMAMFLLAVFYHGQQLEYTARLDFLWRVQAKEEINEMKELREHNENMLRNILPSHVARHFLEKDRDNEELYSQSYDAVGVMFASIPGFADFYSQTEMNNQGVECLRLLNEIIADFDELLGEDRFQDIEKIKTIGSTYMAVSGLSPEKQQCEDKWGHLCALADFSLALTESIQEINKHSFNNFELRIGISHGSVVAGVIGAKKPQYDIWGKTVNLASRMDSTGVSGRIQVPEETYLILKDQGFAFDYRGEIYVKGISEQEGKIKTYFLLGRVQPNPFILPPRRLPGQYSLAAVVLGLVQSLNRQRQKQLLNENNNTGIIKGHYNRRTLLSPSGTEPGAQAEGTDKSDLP
Experimental: Fresh powders of several robust inhibitors (>90% inhibition) were evaluated in multiple confirmation assays assessing the dose response relationship for inhibiting AC1 and AC8 activity. Confirmation assays used A23817 to selectively stimulate recombinant AC1 or AC8 in the HEK cell background (Cumbay and Watts (2001), J. Pharmacol Exp Ther 297:1201-1399). This approach takes advantage of one unique regulatory property of AC1 for the development of selective inhibitors. Both AC1 and AC8 are robustly activated by Ca^2+/CaM under a variety of conditions, whereas the effects of Ca^2+/CaM on AC3 are modest and conditional requiring activation by G proteins. Previous studies have identified unique Ca^2+/CaM binding domains as one possible site of interaction to achieve AC1 (vs. AC8) selectivity (Masada et al., 2012, Biochemistry 51:7917-7929).
The primary technology we employed to measure cAMP accumulation was a homogenous time-resolved fluorescence (HTRF) assay, the same technology utilized in the primary screen.
Human embryonic kidney (HEK) cells stably expressing AC1, AC8, or AC1 with the MOR were cultured in Dulbecco's Modified Eagle Medium (Life Technologies, Grand Island, N.Y.) supplemented with 5% bovine calf serum (Hyclone, Logan, Utah), 5% fetal clone I (Hyclone), Antibiotic-Antimycotic (Life Technologies), and G418 (Invivogen, San Diego, Calif.) (HEK-AC1), or hygromycin B (Fisher Scientific, Pittsburgh, Pa.) (HEK-AC8), or G418 and puromycin (Sigma-Aldrich) (HEK-AC1/MOR). Chinese hamster ovary (CHO) cells expressing the MOR (CHO-MOR) in the PathHunter® β-Arrestin GPCR assay platform were purchased from DiscoveRx (Freemont, Calif.). Cells were grown in Ham's F12 media supplemented with 1 mM L-glutamine (Thermo Scientific, West Palm Beach, Fla.), 10% fetal bovine serum (Hyclone), 50 Um′ penicillin, 50 μg/ml streptomycin (Life Technologies), G418 and hygromycin B. Cells were grown and frozen as previously described (J. M. Conley, et al., J Vis Exp, e51218 (2014)).
as §1, with “Cyclic AMP accumulation was measured as previously described (Brust, et al., J. Pharmacol. Exp. Ther. 352, 480-493(2015)). Briefly,” for “Briefly,”

[5] = target: T4, hAC5 (Homo sapiens, UniProt O95622); experiment: Cyclic AMP accumulation in stable HEK-AC5 cells, stimulated with 300 nM forskolin; assay type: cell-based; conditions: Table 1, at 30 μM, negative = potentiated, n = 2
T4 construct: expressed in transfected cells
T4 sequence (O95622 whole entry): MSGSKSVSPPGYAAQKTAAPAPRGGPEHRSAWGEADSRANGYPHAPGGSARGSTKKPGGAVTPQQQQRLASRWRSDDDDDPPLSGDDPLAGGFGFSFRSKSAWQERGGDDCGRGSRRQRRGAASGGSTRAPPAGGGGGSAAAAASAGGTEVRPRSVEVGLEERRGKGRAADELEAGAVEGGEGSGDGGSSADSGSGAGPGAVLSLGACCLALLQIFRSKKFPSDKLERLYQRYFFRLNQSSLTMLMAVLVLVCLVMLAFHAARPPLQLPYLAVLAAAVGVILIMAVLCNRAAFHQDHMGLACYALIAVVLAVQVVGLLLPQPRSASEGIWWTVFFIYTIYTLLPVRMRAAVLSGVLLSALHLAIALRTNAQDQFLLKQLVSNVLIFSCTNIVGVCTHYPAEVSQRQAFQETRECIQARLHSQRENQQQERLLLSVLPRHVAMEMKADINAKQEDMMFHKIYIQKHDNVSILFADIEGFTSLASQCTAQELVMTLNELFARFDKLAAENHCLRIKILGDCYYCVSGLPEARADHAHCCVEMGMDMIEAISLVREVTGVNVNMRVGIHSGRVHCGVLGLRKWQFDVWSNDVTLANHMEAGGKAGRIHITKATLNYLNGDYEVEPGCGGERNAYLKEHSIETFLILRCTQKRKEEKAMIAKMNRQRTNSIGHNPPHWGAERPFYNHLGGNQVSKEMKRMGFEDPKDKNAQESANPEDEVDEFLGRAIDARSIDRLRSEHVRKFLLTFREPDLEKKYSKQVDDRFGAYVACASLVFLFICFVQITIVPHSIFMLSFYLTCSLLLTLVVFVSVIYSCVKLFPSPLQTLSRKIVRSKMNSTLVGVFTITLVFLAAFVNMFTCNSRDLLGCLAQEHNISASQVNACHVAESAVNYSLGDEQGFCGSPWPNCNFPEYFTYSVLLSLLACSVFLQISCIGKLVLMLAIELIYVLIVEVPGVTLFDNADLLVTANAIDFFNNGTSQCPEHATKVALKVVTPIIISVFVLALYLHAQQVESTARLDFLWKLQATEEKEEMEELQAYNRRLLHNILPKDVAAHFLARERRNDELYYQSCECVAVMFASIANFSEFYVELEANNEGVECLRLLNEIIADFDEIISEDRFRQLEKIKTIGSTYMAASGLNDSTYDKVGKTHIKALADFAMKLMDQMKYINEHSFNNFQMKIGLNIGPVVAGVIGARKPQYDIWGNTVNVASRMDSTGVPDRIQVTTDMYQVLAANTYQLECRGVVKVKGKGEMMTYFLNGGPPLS
Experimental: as §1, with “Cyclic AMP accumulation was measured as previously described (Brust, et al., J. Pharmacol. Exp. Ther. 352, 480-493(2015)). Briefly,” for “Briefly,”

[6] = system: HEK-AC1 cells; conditions: data from Brust et al. 2017; cited from earlier work
[7] = target: T2, hAC2; conditions: Table 1; at 30 μM; 100 nM PMA; data from Brust et al. 2017; cited from earlier work
[8] = target: T1, hAC1; conditions: Table 1; data from Brust et al. 2017; cited from earlier work
[9] = target: T4, hAC5; conditions: Table 1; at 30 μM; 300 nM forskolin; data from Brust et al. 2017; cited from earlier work
[10] = system: chronic pain responses; conditions: rats; literature; cited from earlier work
[11] = system: chronic pain responses; conditions: mice; literature; cited from earlier work
[12] = Table 1, stable HEK cells, A23187-stimulated cAMP, n ≥ 3, read-out: hAC8 IC50
[13] = Table 1, stable HEK cells, A23187-stimulated cAMP, n ≥ 3
[14] = Table 1, stable HEK cells, A23187-stimulated cAMP, n ≥ 3, read-out: hAC1 IC50
[15] = Table 2, read-out: HEK-AC1 IC50

T1 sequence (Q08828 whole entry): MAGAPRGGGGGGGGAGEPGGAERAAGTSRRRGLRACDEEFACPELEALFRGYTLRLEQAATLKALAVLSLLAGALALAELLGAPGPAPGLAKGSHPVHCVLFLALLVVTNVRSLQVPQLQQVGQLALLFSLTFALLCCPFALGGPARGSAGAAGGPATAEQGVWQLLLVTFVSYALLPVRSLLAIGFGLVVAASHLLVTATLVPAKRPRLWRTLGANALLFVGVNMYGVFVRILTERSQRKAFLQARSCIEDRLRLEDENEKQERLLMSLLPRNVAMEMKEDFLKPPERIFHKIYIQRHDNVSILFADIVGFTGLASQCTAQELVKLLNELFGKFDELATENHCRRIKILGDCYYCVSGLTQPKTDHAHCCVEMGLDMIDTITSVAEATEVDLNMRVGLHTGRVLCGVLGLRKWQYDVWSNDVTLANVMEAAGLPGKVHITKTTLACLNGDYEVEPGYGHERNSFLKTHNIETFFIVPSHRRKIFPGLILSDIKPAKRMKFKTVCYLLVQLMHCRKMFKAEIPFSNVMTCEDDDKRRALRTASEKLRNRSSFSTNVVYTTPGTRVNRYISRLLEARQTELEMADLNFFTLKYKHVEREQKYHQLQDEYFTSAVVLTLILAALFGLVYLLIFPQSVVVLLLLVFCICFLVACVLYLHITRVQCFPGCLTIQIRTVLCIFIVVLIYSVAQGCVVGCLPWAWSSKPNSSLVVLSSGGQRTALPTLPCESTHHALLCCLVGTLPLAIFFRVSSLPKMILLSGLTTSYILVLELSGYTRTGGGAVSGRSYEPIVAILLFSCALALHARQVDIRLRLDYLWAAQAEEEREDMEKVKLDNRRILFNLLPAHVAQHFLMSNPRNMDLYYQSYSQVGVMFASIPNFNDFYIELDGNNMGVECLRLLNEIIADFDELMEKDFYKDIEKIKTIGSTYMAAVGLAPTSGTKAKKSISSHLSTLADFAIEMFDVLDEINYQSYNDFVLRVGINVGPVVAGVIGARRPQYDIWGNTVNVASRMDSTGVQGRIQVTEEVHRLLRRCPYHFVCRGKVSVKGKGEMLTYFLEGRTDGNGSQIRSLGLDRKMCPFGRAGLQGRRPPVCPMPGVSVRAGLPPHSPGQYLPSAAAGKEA

| Structure (SMILES) | inhibition at 30 µM ([1]; Table 2) | Viability % Veh [2] | hAC2 % Inhib [3] | hAC8 % Inhib ([4]; Table 1) | hAC5 % Inhib [5] | Selectivity AC1 vs AC8 [1] | hAC1 % Inhib [1, 13] | IC50 [1, 14] | IC50 [1, 15] | inhibition at 30 µM ([4]; Table 2) | further results |
| --- | --- | --- | --- | --- | --- | --- | --- | --- | --- | --- | --- |
| Cc1cc(NC(=O)C2CC2)n(-c2nc(=O)cc(C)[nH]2)n1 [AC10051, N-(3-methyl-1-(6-methyl-4-oxo-1,4-dihydropyrimidin-2-yl)-1H-pyrazol-5-yl)cyclopropanecarboxamide] | 4 ± 7% |  |  |  |  |  |  |  |  |  |  |
| CC1CC(C)CN(S(=O)(=O)c2ccc(C(=O)Nc3nnc(-c4cccs4)o3)cc2)C1 (stereo not shown) [Compound F0559-0346] |  | 118 ± 2 % Veh | −6% | 74 ± 13% | 4% | 2-fold | 99 ± 1% | 9.1 ± 2 µM |  |  | IC50 [4, 12]: 17 ± 6 µM |
| O=c1cc(C(Cl)(Cl)Cl)oc2ccc(Cl)cc12 [ST034307, 6-chloro-2-(trichloromethyl)-4H-chromen-4-one] |  |  |  |  |  |  |  |  |  |  | Viability % Veh [6]: 85 ± 6 % Veh; hAC2 % Inhib [7]: −142%; hAC1 % Inhib [8]: 108 ± 10%; hAC5 % Inhib [9]: −44% |
| CCc1cc(=O)nc(-n2nc(C)cc2NC(=O)C2CC2)[nH]1 [AC10050, N-(1-(6-ethyl-4-oxo-1,4-dihydropyrimidin-2-yl)-3-methyl-1H-pyrazol-5-yl)cyclopropanecarboxamide] | 79 ± 4% |  |  |  |  |  |  |  | 16.7 ± 1 µM |  |  |
| Nc1ncnc2c1ncn2CCNCCCCCO [NB001] |  |  |  |  |  |  |  |  |  |  | chronic pain responses (inflammatory and neuropathic) [10]: markedly attenuated chronic pain responses; chronic pain responses (inflammatory and neuropathic) [11]: markedly attenuated chronic pain responses |
| CCc1cc(=O)nc(-n2nc(C)cc2NC(=O)c2cccc(F)c2)[nH]1 [AC10049, N-(1-(6-ethyl-4-oxo-1,4-dihydropyrimidin-2-yl)-3-methyl-1H-pyrazol-5-yl)-3-fluorobenzamide] | 98 ± 1% |  |  |  |  |  |  |  | 1.3 ± 0.2 µM | 26 ± 4% | IC50 ([4]; Table 2, read-out: HEK-AC8 IC50): 68 ± 10 µM |
| CCc1cc(=O)nc(-n2nc(C)cc2NC(=O)c2ccccc2F)[nH]1 [AC10048, N-(1-(6-ethyl-4-oxo-1,4-dihydropyrimidin-2-yl)-3-methyl-1H-pyrazol-5-yl)-2-fluorobenzamide] | 99 ± 2% |  |  |  |  |  |  |  | 0.58 ± 0.2 µM | 19 ± 11% |  |
| Cc1cc(NC(=O)c2ccco2)n(-c2nc(=O)cc(C)[nH]2)n1 [AC10043, N-(3-methyl-1-(6-methyl-4-oxo-1,4-dihydropyrimidin-2-yl)-1H-pyrazol-5-yl)furan-2-carboxamide] | 92 ± 2% |  |  |  |  |  |  |  | 10.3 ± 2 µM | 16 ± 9% |  |
| O=C(Nc1nnc(-c2ccc3c(c2)CCCC3)o1)c1ccccc1 [Compound F0608-0538] |  | 118 ± 6 % Veh | −95% | 76 ± 8% | −34% | 10-fold | 101 ± 1% | 2.1 ± 0.4 µM |  |  | IC50 [4, 12]: 21 ± 4 µM |
| CCc1c(C)nc(-n2nc(C)cc2NC(=O)c2ccco2)[nH]c1=O [Compound F2215-0772] |  | 93 ± 1 % Veh | 32% | 34 ± 7% | 13% | >30-fold | 100 ± 1% | 0.9 ± 0.2 µM |  |  |  |
| CSc1ccccc1C(=O)Nc1cc(C)nn1-c1nc2c(c(=O)[nH]1)CCC2 [Compound F2215-0954] |  | 106 ± 14 % Veh | −185% | 35 ± 8% | −21% | >5-fold | 99 ± 1% | 5.9 ± 0.4 µM |  |  |  |
| O=C(Nc1nnc(-c2ccc3c(c2)OCCO3)o1)c1ccc(Br)cc1 [Compound F0608-0011] |  | 125 ± 3 % Veh | −7% | 79 ± 1% | −10% | 9-fold | 101 ± 1% | 2 ± 0.2 µM |  |  | IC50 [4, 12]: 18 ± 2 µM |
| CCc1cc(=O)nc(-n2nc(C)cc2NC(=O)c2ccc(Cl)cc2)[nH]1 [AC10058, 4-chloro-N-(1-(6-ethyl-4-oxo-1,4-dihydropyrimidin-2-yl)-3-methyl-1H-pyrazol-5-yl)benzamide] | 99 ± 1% |  |  |  |  |  |  |  | 1.2 ± 0.2 µM | 19 ± 4% |  |
| Cc1cc(NC(=O)c2ccccc2F)n(-c2nc(=O)cc(C)[nH]2)n1 [AC10042, 2-Fluoro-N-(3-methyl-1-(6-methyl-4-oxo-1,4-dihydropyrimidin-2-yl)-1H-pyrazol-5-yl)benzamide] | 101 ± 0.7% |  |  |  |  |  |  |  | 1.5 ± 0.3 µM | 9 ± 4% |  |
| CSc1cccc(C(=O)Nc2nnc(C3CCCCC3)o2)c1 [Compound F2289-0107] |  | 117 ± 1 % Veh | −210% | 31 ± 2% | −28% | >4-fold | 99 ± 1% | 7.5 ± 2 µM |  |  |  |
| Cc1cc(NC(=O)c2cccc(F)c2)n(-c2nc(=O)cc(C)[nH]2)n1 [AC10057, 3-fluoro-N-(3-methyl-1-(6-methyl-4-oxo-1,4-dihydropyrimidin-2-yl)-1H-pyrazol-5-yl)benzamide] | 94 ± 1% |  |  |  |  |  |  |  | 3.7 ± 0.2 µM | 9 ± 2% |  |
| CCc1cc(=O)[nH]c(-n2nc(C)cc2NC(=O)c2ccccc2F)n1 [Compound F2215-0213] |  | 101 ± 17 % Veh | −70% | 20 ± 1% | 9% |  | 99 ± 1% | 0.5 ± 0.1 µM |  |  |  |
